Active and inactive are the calls of the source. The rule behind the calls is not given here. Peptide text beside a SMILES is read from it.
Assays:
[1] = test system: PC-12; assay: Protection against beta amyloid 42-induced neurotoxicity in rat PC12 cells by MTT reduction assay; assay type: functional, cell-based
[2] = molecular target: Amyloid-beta precursor protein (Homo sapiens) (UniProt P05067); assay: Binding affinity to beta amyloid 42 by ELISA
[3] = molecular target: Amyloid-beta precursor protein (Homo sapiens) (UniProt P05067); assay: Inhibition of self-aggregation of beta amyloid 42 by thioflavin T assay; assay type: functional
[4] = molecular target: Amyloid-beta precursor protein (Homo sapiens) (UniProt P05067); assay: Binding affinity to beta amyloid 42 at 10 uM to 100 uM by ELISA
[5] = test system: PC-12; assay: Neutralizing activity against beta amyloid 42-induced cytotoxicity in rat PC12 cells at 100 uM by MTT reduction assay; assay type: functional, cell-based

Amyloid-beta precursor protein (Homo sapiens), sequence (P05067 whole entry): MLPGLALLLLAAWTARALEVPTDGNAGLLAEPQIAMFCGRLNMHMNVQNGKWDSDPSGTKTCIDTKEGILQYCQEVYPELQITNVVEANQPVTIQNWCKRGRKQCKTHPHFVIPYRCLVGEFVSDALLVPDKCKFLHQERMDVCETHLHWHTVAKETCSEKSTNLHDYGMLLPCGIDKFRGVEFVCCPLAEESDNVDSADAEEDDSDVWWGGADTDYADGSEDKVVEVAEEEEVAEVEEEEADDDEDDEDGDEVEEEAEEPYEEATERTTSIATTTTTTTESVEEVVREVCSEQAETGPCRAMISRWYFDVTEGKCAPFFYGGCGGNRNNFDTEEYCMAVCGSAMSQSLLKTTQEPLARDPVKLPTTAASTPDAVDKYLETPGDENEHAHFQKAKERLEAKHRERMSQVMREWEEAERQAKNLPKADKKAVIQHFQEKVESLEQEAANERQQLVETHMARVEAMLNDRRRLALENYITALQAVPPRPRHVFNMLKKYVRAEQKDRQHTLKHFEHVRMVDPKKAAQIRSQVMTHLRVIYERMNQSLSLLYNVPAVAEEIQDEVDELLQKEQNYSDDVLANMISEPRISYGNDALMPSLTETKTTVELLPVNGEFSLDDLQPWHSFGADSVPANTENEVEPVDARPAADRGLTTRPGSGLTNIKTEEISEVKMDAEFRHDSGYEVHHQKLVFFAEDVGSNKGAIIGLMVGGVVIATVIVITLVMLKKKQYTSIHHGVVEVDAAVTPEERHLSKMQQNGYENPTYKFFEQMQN

Compound | Activity [1] | also measured
CC(C)[C@H](NC(=O)[C@H](Cc1ccccc1)NC(=O)[C@@H](N)[C@H](C)O)C(=O)N[C@@H](CCCN=C(N)N)C(=O)N[C@H](C(=O)O)[C@H](C)O | inactive | 
CC(C)[C@H](NC(=O)[C@H](Cc1ccccc1)NC(=O)[C@@H](NC(=O)[C@@H](N)CS)[C@H](C)O)C(=O)N[C@@H](CCCN=C(N)N)C(=O)O | inactive | Activity [2]: Active
CC[C@H](C)[C@H](NC(=O)[C@H](Cc1c[nH]cn1)NC(=O)[C@@H](NC(=O)[C@H](CCCN=C(N)N)NC(=O)[C@@H](NC(=O)[C@H](Cc1ccccc1)NC(=O)[C@@H](NC(=O)[C@@H](N)CS)[C@@H](C)O)C(C)C)[C@@H](C)O)C(=O)N[C@@H](Cc1ccccc1)C(=O)N[C@@H](CS)C(=O)N[C@@H](CCCCN)C(=O)N[C@@H](CCC(=O)O)C(=O)N[C@@H](Cc1c[nH]cn1)C(=O)N[C@@H](CCC(N)=O)C(=O)N[C@@H](Cc1ccccc1)C(=O)O (H-CTFVRTHIFCKEHQF-OH) | Dose-dependent effect | Activity [2]: Active; Activity [3]: Dose-dependent effect
H-CKEHQ-OH | inactive | 
H-FCKEH-OH | inactive | 
H-FNHKKRLLHPSLFPR-OH |  | Activity [2]: inactive; Activity [3]: inactive
H-FVRTH-OH | inactive | 
H-HESNDCTFV-OH |  | Activity [2]: inactive
H-HESNDCTFVRT-OH |  | Activity [4]: Active; Activity [5]: inactive
H-HIFCK-OH | inactive | 
H-IFCKE-OH | inactive | 
H-KEHQF-OH | inactive | Activity [3]: inactive
H-THIFC-OH | inactive | 
H-VRTHI-OH | inactive | 

— ChEMBL document CHEMBL1145340, “Potential lead for an Alzheimer drug: a peptide that blocks intermolecular interaction and amyloid beta protein-induced cytotoxicity” (J Med Chem, 2006)
